One assay has as its system Friend Leukemia Virus. Description: Inhibition of Friend Leukemia Virus-induced splenomegaly in mice, compounds intraperitoneally 24 hours after virus (Example 1(a)). The assay is classed as in vivo, BALB/c mice. The following applies: dose 150 mg (so in the source); Table III second set. Summed up:
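BALB/c mice inoculated i.v. with 10^6 FFU Friend virus (spleen homogenate); compounds given i.p. 24 h later at 100 μg once, or 50, 100, 200 μg or 2×100 μg (second dose 24–48 h after first), two mice per group. Spleens weighed at day 10; percent inhibition from average spleen weights relative to negative and positive controls.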

The test system of a further assay is retroviruses. Description: Comparison over two in vitro and one in vivo biological assays (Example 10). The following applies: Example 10. Summed up:
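In vitro direct inactivation of retroviruses was tested alongside in vivo inhibition of Friend Leukemia Virus splenomegaly in mice. For the in vivo test, compounds were given intravenously 1-2 hours post infection.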

`Cc1cc(O)c2c(=O)c3c(O)cc(O)c4c5c(O)cc(O)c6c(=O)c7c(O)cc(C)c8c1c2c(c34)c(c78)c65` [hypericin, Hypericin]: the “Average Spleen Weight” value with Friend Leukemia Virus is given as 0.7707. The “activity across assays” value in the assay with retroviruses is “high degree of activity in a more than one assay”.

The values above are taken from patent US6150414A, “Compositions and methods for treating viral infections” (priority 1992, dated 2000).
